Data from patent publication US20250353873A1, “COMPOUNDS AND METHODS FOR MODULATING APOE EXPRESSION” (Ionis Pharmaceuticals, Inc., priority 2024, published 2025).
Marks after values point to notes of the source that are not given here. Strand notation (5' to 3'): a small letter for the sugar, then the base; units joined by * are phosphorothioate-linked, units joined directly phosphodiester-linked; [ ] holds rarer units or linkages, { } end groups; capitals alone tell only the bases. [ms] = mesyl phosphoramidate linkage; e = 2'-O-(2-methoxyethyl) (MOE); k = constrained ethyl (cEt); [5mC] = 5-methylcytosine; d = 2'-deoxy (DNA)

Key:
[1] = system: human APOE RNA; test: Activity in APOE 1549 knock-in mice, single ICV bolus, 2 weeks (Example 7); type: in vivo; settings: single ICV bolus of 300 μg, two weeks post treatment, Table 16
Experimental: Modified oligonucleotides described above were tested in APOE knock-in mice.
APOE knock-in mice (model 41549) were obtained from Taconic Biosciences. APOE knock-in mice were divided into groups of 2 mice each. Each mouse received a single intracerebroventricular (ICV) bolus of 300 μg of modified oligonucleotide. A group of 4 mice received a single ICV bolus with PBS as a negative control.
Two weeks post treatment, mice were sacrificed and RNA was extracted from cortical brain tissue and spinal cord for quantitative real-time RT-PCR analysis of RNA expression of APOE using primer probe set RTS3073 (described herein above). APOE RNA levels were normalized to mouse Ppia. Mouse Ppia was amplified using primer probe set m_cyclo24 (forward sequence TCGCCGCTTGCTGCA, designated herein as SEQ ID NO: 16; reverse sequence ATCGGCCGTGATGTCGA, designated herein as SEQ ID NO: 17; probe sequence […], designated herein as SEQ ID NO: 18). Results are presented as percent human APOE RNA relative to the amount of human APOE RNA in PBS treated animals, (% control). Each experiment is identified in separate tables below.

[2] = system: human APOE RNA; test: Activity in APOE C57BL/6NTac-Apoeem7250 knock-in mice, single ICV bolus, 8 weeks (Example 11); type: in vivo; settings: single ICV bolus 300 μg, 8 weeks post treatment, normalized to mouse Ppia
How it was run: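 Human APOE knock-in C57BL/6NTac mice given one ICV bolus of 300 μg oligonucleotide; PBS-dosed group as control. At 8 weeks, cortex and spinal cord RNA measured by qRT-PCR (human probe RTS3073), normalized to mouse Ppia, expressed as % of PBS control.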

[3] = system: human APOE RNA; test: Potency (dose response, ED50) in APOE C57BL/6NTac-Apoeem7250 knock-in mice, 4 weeks (Example 14); type: in vivo
Experimental: Modified oligonucleotides described above were tested in the APOE C57BL/6NTac-Apoeem7250 knock-in mouse model described above.
APOE C57BL/6NTac-Apoeem7250 knock-in mice were divided into groups of 3-4 mice each. A group of 3-4 mice received a single ICV bolus with PBS as a negative control.
Four weeks post treatment, mice were sacrificed, and RNA was extracted from cortical brain tissue and spinal cord for quantitative real-time RT-PCR analysis of RNA expression of […] using human primer probe set RTS3073 (described herein above). APOE RNA levels were normalized to mouse Ppia. Mouse Ppia was amplified using primer probe set m_cyclo24 (described herein above). Results are presented as percent human APOE RNA relative to the amount of APOE RNA in PBS treated animals, (% control). N.C. indicates values that were not calculated. Each experiment is identified in separate tables below.
The half maximal effective dose (ED50) of each modified oligonucleotide was calculated using GraphPad Prism 10 software (GraphPad Software, San Diego, CA).

[4] = system: human APOE RNA; test: Activity in APOE C57BL/6NTac-Apoeem7250 knock-in mice, single ICV bolus, 20 weeks (Example 13); type: in vivo; settings: single ICV bolus 300 μg, 20 weeks post treatment, normalized to mouse Ppia
How it was run: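 Knock-in mice (n=4) given a single ICV bolus of 300 μg oligonucleotide, PBS as control. After 20 weeks, human APOE RNA in cortex and spinal cord measured by RT-qPCR, normalized to mouse Ppia, expressed as % of PBS-treated animals.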

[5] = system: human APOE RNA; test: Activity in APOE C57BL/6NTac-Apoeem7250 knock-in mice, single ICV bolus, 16 weeks (Example 12); type: in vivo; settings: single ICV bolus 300 μg, 16 weeks post treatment, normalized to mouse Ppia
How it was run: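 Knock-in mice (3-4 per group) received one ICV bolus of 300 μg oligonucleotide, PBS as control. After 16 weeks, human APOE RNA in cortex and spinal cord measured by RT-qPCR, normalized to mouse Ppia, and reported as % of PBS control.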

[6] = system: human APOE RNA; test: Activity in APOE C57BL/6NTac-Apoeem7250 knock-in mice, single ICV bolus, 4 weeks (Example 10); type: in vivo; settings: single ICV bolus 300 μg, 4 weeks post treatment, normalized to mouse Ppia
How it was run: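 Knock-in mice (2–4 per group) received one 300 μg ICV bolus of oligonucleotide or PBS. After four weeks, human APOE RNA in cortex and spinal cord measured by RT-qPCR (primer probe set RTS3073), normalized to mouse Ppia, expressed as % of PBS controls.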

[7] = system: human APOE RNA; test: Dose-dependent inhibition of human APOE RNA in HepG2 cells, electroporation, 50,000 cells per well, RT-PCR normalized to GAPDH (Example 4, Tables 8-10); type: cell-based; settings: HepG2 cells, electroporation, Table 8
How it was run: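 HepG2 cells, 50,000 per well, electroporated with modified oligonucleotide at various concentrations. APOE RNA quantified by RT-PCR with human primer probe set RTS3073, normalized to GAPDH. Values are percent APOE RNA relative to untreated control cells.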

[8] = system: human APOE RNA; test: Duration of action study in APOE C57BL/6NTac-Apoeem7250 knock-in mice (Example 18); type: in vivo; settings: 300 μg ICV
Experimental: Modified oligonucleotides described above were tested in the APOE C57BL/6NTac-Apoeem7250 knock-in model (described above).
Each mouse received a single intracerebroventricular (ICV) bolus of 300 μg of modified oligonucleotide. A group of 4-6 mice received a single ICV bolus with PBS as a negative control.
Mice were sacrificed at various timepoints as indicated in the table below and RNA was extracted from cortical brain tissue and spinal cord for quantitative real-time RT-PCR analysis of RNA expression of APOE using primer probe set RTS3073 (described herein above). APOE RNA levels were normalized to mouse Ppia. Mouse Ppia was amplified using primer probe set m_cyclo24 (described herein above). Results are presented as percent human APOE RNA relative to the amount of human APOE RNA in PBS treated animals, (% control). Each experiment is identified in separate tables below.

Substance: 1601942: 6-10-4 MOE gapmer CCGTGTTCCATTTATGAGCT, linkages sooooossssssssssoss (antisense e[5mC]*e[5mC]eGeTeGeTdT*d[5mC]*d[5mC]*dA*dT*dT*dT*dA*dT*dG*eAeG*e[5mC]*eT) [compound 1601942]
- APOE RNA (% control) Cortex [1]: 84 % control
- APOE RNA (% control) Spinal Cord [1]: 91 % control

Substance: 1601943: 6-10-4 MOE gapmer GTCCTCATTTTAAAGTTCTC, linkages sooooossssssssssoss (antisense eG*eTe[5mC]e[5mC]eTe[5mC]dA*dT*dT*dT*dT*dA*dA*dA*dG*dT*eTe[5mC]*eT*e[5mC]) [compound 1601943]
- APOE RNA (% control) Cortex [1]: 115 % control
- APOE RNA (% control) Spinal Cord [1]: 113 % control

Substance: 1601944: 6-10-4 MOE gapmer CTGGTCTTCTCTTATCTCCC, linkages sooooossssssssssoss (antisense e[5mC]*eTeGeGeTe[5mC]dT*dT*d[5mC]*dT*d[5mC]*dT*dT*dA*dT*d[5mC]*eTe[5mC]*e[5mC]*e[5mC]) [compound 1601944]
- APOE RNA (% control) Cortex [1]: 109 % control
- APOE RNA (% control) Spinal Cord [1]: 95 % control

Substance: 1601948: 6-10-4 MOE gapmer GTTCAAATTCCATCCCCCCA, linkages sooooossssssssssoss (antisense eG*eTeTe[5mC]eAeAdA*dT*dT*d[5mC]*d[5mC]*dA*dT*d[5mC]*d[5mC]*d[5mC]*e[5mC]e[5mC]*e[5mC]*eA) [compound 1601948]
- APOE RNA (% control) Cortex [1]: 112 % control
- APOE RNA (% control) Spinal Cord [1]: 105 % control

Substance: 1778154: modified oligonucleotide complementary to human APOE RNA (e[5mC]*eT*eTeGeGeT*dG[ms]dA[ms]dA*dT*d[5mC]*dT*dT*dT*dA*dT*kTkAeA*eA; antisense) [compound 1778154]
- APOE RNA (% control) Cortex [2]: 29 % control
- APOE RNA (% control) Spinal Cord [2]: 32 % control
- APOE RNA (% control) Cortex ([3]; cortex, ICV dose 10 μg): 89 % control
- APOE RNA (% control) Cortex ([3]; cortex, ICV dose 30 μg): 89 % control
- APOE RNA (% control) Cortex ([3]; cortex, ICV dose 100 μg): 70 % control
- APOE RNA (% control) Cortex ([3]; cortex, ICV dose 300 μg): 56 % control
- APOE RNA (% control) Cortex ([3]; cortex, ICV dose 700 μg): 27 % control
- ED 50 (μg) Cortex ([3]; cortex, single ICV bolus, GraphPad Prism 10): 279.4 µg
- APOE RNA (% control) Spinal Cord ([3]; spinal cord, ICV dose 10 μg): 105 % control
- APOE RNA (% control) Spinal Cord ([3]; spinal cord, ICV dose 30 μg): 137 % control
- APOE RNA (% control) Spinal Cord ([3]; spinal cord, ICV dose 100 μg): 38 % control
- APOE RNA (% control) Spinal Cord ([3]; spinal cord, ICV dose 300 μg): 43 % control
- APOE RNA (% control) Spinal Cord ([3]; spinal cord, ICV dose 700 μg): 47 % control
- ED 50 (μg) Spinal Cord ([3]; spinal cord, single ICV bolus, GraphPad Prism 10): 243.1 µg
- APOE RNA (% control) Cortex ([4]; cortex): 82 % control
- APOE RNA (% control) Spinal Cord ([4]; spinal cord): 46 % control
- APOE RNA (% control) Cortex ([5]; cortex): 50 % control
- APOE RNA (% control) Spinal Cord ([5]; spinal cord): 29 % control
- APOE RNA (% control) Cortex ([6]; cortex): 30 % control
- APOE RNA (% control) Spinal Cord ([6]; spinal cord): 44 % control
- APOE RNA (% UTC) 5 nM ([7]; 24-hour treatment, 5 nM): 101 % UTC
- APOE RNA (% UTC) 13 nM ([7]; 24-hour treatment, 13 nM): 97 % UTC
- APOE RNA (% UTC) 33 nM ([7]; 24-hour treatment, 33 nM): 91 % UTC
- APOE RNA (% UTC) 82 nM ([7]; 24-hour treatment, 82 nM): 98 % UTC
- APOE RNA (% UTC) 205 nM ([7]; 24-hour treatment, 205 nM): 76 % UTC
- APOE RNA (% UTC) 512 nM ([7]; 24-hour treatment, 512 nM): 58 % UTC
- APOE RNA (% UTC) 1,280 nM ([7]; 24-hour treatment, 1,280 nM): 47 % UTC
- APOE RNA (% UTC) 3,200 nM ([7]; 24-hour treatment, 3,200 nM): 22 % UTC
- APOE RNA (% UTC) 8,000 nM ([7]; 24-hour treatment, 8,000 nM): 35 % UTC
- APOE RNA (% UTC) 20,000 nM ([7]; 24-hour treatment, 20,000 nM): 8 % UTC
- IC50 ([7]; reduction of human APOE RNA, 24-hour treatment): 1080 nM

Substance: 1809636 (kA*e[5mC]eTeT*eG*kG*dT*dG[ms]dA[ms]dA[ms]dT*d[5mC]*dT*dT*dT*dA[ms]kT*kT*eA*kA; antisense) [Compound 1809636]
- APOE RNA (% control) Cortex [2]: 16 % control
- APOE RNA (% control) Spinal Cord [2]: 11 % control
- APOE RNA (% control) Cortex ([8]; 56 days post-dose): 32 % control
- APOE RNA (% control) Cortex ([8]; 112 days post-dose): 33 % control
- APOE RNA (% control) Cortex ([8]; 224 days post-dose): 65‡ % control
- APOE RNA (% control) Spinal Cord ([8]; 56 days post-dose): 14 % control
- APOE RNA (% control) Spinal Cord ([8]; 112 days post-dose): 13 % control
- APOE RNA (% control) Spinal Cord ([8]; 224 days post-dose): 41‡ % control

Substance: 1809637 (kA*e[5mC]eTeT*eG*kG*dT*dG[ms]dA[ms]dA[ms]dT*d[5mC]*dT*dT*dT*dA[ms]kT*kT*kA*kA; antisense) [Compound 1809637]
- APOE RNA (% control) Cortex [2]: 20 % control
- APOE RNA (% control) Spinal Cord [2]: 9 % control
- APOE RNA (% control) Cortex ([8]; 56 days post-dose): 26‡ % control
- APOE RNA (% control) Cortex ([8]; 112 days post-dose): 42 % control
- APOE RNA (% control) Cortex ([8]; 224 days post-dose): 58‡ % control
- APOE RNA (% control) Spinal Cord ([8]; 56 days post-dose): 19 % control
- APOE RNA (% control) Spinal Cord ([8]; 112 days post-dose): 17 % control
- APOE RNA (% control) Spinal Cord ([8]; 224 days post-dose): 36‡ % control

Substance: 1810064: mixed MOE/cEt gapmer CTTGGTGAATCTTTATTAAAC, sugar eeeeekddddddddddeeeee, linkages ssoooszzzssssszsooss (e[5mC]*eT*eTeGeGkT*dG[ms]dA[ms]dA[ms]dT*d[5mC]*dT*dT*dT*dA[ms]dT*eTeAeA*eA*e[5mC]) [compound 1810064]
- APOE RNA (% control) Cortex [2]: 23 % control
- APOE RNA (% control) Spinal Cord [2]: 15 % control
- APOE RNA (% control) Cortex ([8]; 28 days post-dose): 40 % control
- APOE RNA (% control) Cortex ([8]; 112 days post-dose): 62 % control
- APOE RNA (% control) Cortex ([8]; 140 days post-dose): 63 % control
- APOE RNA (% control) Spinal Cord ([8]; 28 days post-dose): 22 % control
- APOE RNA (% control) Spinal Cord ([8]; 112 days post-dose): 31 % control
- APOE RNA (% control) Spinal Cord ([8]; 140 days post-dose): 48 % control
